How the values were obtained:
[1] = biological target: T1, hNPFFR1 (Homo sapiens, UniProt Q9GZQ6); assay: Radioligand binding competition, membranes from CHO cells expressing hNPFFR1; conditions: 0.015 nM [D-Tyr1[125I], N-MePhe3]-NPFF, 1 hr at 25° C., read-out: NPFF1-R Ki
T1 construct: expressed in transfected cells; membranes
Method: (§1) Competition experiments with membranes from CHO cells stably expressing hNPFFR1 and hNPFFR2 were performed essentially as described in Elhabazi, K., et al. Neuropharmacology, 2013. 75C, 164-171., Briefly, hNPFFR1 or hNPFFR2 membranes (5 to 10 μg of proteins) were incubated (1 hr at 25° C.; 0.25 mL total volume) with 0.015 nM [D-Tyr1[125I], N-MePhe3]-NPFF (Hartmann Analytic GmbH) in 50 mM HEPES (pH 7.4), 1 mM CaCl2, 1 mM MgCl2 and 0.1% bovine serum albumin. Non-specific binding was determined in the presence of 10 μM RFRP-3. Incubation was terminated by rapid filtration through a 96-well GF/B unifilter apparatus (Perkin Elmer Life and Analytical Sciences, Courtaboeuf, France). Unifilters were washed five times with binding buffer, then dried for 1 h at 65° C. After addition of 40 μL scintillation cocktail (Microscint-O, Perkin Elmer) per well, bound radioactivity was determined on a TopCount scintillation counter (Perkin Elmer).

[2] = biological target: T2, hNPFFR2 (Homo sapiens, UniProt Q9Y5X5); assay: Radioligand binding competition, membranes from CHO cells expressing hNPFFR2; conditions: 0.015 nM [D-Tyr1[125I], N-MePhe3]-NPFF, 1 hr at 25° C., read-out: NPFF2-R Ki
T2 construct: expressed in transfected cells; membranes
T2 sequence (Q9Y5X5 whole entry): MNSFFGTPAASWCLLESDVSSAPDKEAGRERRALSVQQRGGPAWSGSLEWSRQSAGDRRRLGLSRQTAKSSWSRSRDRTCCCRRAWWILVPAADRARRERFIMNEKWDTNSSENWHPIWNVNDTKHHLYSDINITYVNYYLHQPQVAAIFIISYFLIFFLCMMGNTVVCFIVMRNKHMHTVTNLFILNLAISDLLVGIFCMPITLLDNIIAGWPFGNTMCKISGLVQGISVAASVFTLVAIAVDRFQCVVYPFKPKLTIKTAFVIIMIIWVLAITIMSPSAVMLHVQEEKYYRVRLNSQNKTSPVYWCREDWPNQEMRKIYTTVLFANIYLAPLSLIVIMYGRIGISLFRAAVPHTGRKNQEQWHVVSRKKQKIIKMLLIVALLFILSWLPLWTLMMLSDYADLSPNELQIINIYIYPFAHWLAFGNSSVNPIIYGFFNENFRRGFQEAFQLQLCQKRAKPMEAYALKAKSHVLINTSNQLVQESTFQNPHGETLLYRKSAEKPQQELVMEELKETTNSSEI
Method: as §1

[3] = biological target: T3, human NPFFR1 (hNPFFR1) receptor (Homo sapiens, UniProt Q9GZQ6); assay: Human NPFFR1 evaluation using BRET biosensors in HEK-293 T cells; format: cell-based; conditions: hNPFFR1 in HEK-293 T cells, stimulated by EC80 RFRP-3, read-out: IC50 of antagonist activity
T3 construct: expressed in transfected cells; host or cells: HEK-293 T cells, transient co-transfection
T3 sequence (Q9GZQ6 whole entry): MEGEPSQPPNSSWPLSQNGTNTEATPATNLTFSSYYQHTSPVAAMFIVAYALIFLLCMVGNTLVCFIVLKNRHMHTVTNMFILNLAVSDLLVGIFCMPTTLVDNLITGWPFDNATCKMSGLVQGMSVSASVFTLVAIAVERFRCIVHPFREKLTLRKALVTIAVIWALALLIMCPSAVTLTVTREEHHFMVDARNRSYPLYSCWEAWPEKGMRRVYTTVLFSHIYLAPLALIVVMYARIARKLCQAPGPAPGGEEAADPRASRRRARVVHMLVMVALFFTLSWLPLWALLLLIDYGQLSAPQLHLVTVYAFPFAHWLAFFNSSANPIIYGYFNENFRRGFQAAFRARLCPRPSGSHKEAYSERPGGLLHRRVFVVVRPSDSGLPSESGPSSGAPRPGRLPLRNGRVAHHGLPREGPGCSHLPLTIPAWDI
Outline: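 HEK-293 T cells transiently co-expressing hNPFFR1, GαoB and a Gi-effector BRET biosensor pair; agonist read after 10 min compound alone, then antagonism after EC80 RFRP-3 for 10 min. IC50 from 20-point curves over 6 logs, duplicates in two independent experiments.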

T1 sequence (Q9GZQ6 whole entry): as above

Row | Structure (SMILES) | Ki [1] | Ki [2] | IC50 [3]
1 | Nc1ccc(-c2ccccc2C(F)(F)F)c(N)n1 [Compound 1f, 3-(2-(trifluoromethyl)phenyl) pyridine-2,6-diamine] | 22.4 nM | 6700 nM | 500 to 1000 nM
2 | CC(C)Nc1nc(N)ccc1-c1cccc(Cl)c1Cl [Compound 5e, 3-(2,3-dichlorophenyl)-N2-isopropylpyridine-2,6-diamine] | 250 nM | 1900 nM | > 1000 nM
3 | CCOc1ccccc1-c1ccc(N)nc1N [Compound 2d, 3-(2-ethoxyphenyl)pyridine-2,6-diamine] | 15 nM | 700 nM | 100 to 500 nM
4 | Nc1ccc(Cc2ccc(Cl)cc2)c(N)n1 [Compound 10c, 3-(4-chlorobenzyl)pyridine-2,6-diamine] | 56 nM | 2700 nM | 500 to 1000 nM
5 | Nc1ccc(-c2ccccc2-c2ccccc2)c(N)n1 [Compound 1r, 3-([1,1′-biphenyl]-2-yl)pyridine-2,6-diamine] | 20.7 nM | 700 nM | 100 to 500 nM
6 | COc1ccccc1-c1ccc(N)nc1C(C)C [Compound 6h, 6-isopropyl-5-(2-methoxyphenyl)pyridin-2-amine] | 35.7 nM | 1500 nM | 500 to 1000 nM
7 | CCc1ccccc1-c1ccc(N)nc1N [Compound 1d, 3-(2-ethylphenyl)pyridine-2,6-diamine] | 6.2 nM | 2000 nM | 100 to 500 nM
8 | Nc1ccc(-c2ccccc2OC2CCCC2)c(N)n1 [Compound 2i, 3-(2-(cyclopentyloxy)phenyl)pyridine-2,6-diamine] | 4 nM | 280 nM | 100 to 500 nM
9 | Nc1ccc(-c2ccc(Cl)c(Cl)c2)c(N)n1 [Compound 1n, 3-(3,4-dichlorophenyl) pyridine-2,6-diamine] | 313 nM | 2560 nM | > 1000 nM
10 | Nc1ccc(Cc2ccccc2Cl)c(N)n1 [Compound 10e, 3-(2-chlorobenzyl)pyridine-2,6-diamine] | 3.7 nM | 450 nM | 100 to 500 nM
11 | Nc1ccc(-c2ccccc2Cl)c(N)n1 [Compound 1b, 3-(2-chlorophenyl)pyridine-2,6-diamine] | 39 nM | 1300 nM | 500 to 1000 nM
12 | Nc1ccc(-c2cccc(Cl)c2Cl)cn1 [Compound 6a, 5-(2,3-dichlorophenyl)pyridin-2-amine] | 577 nM | 4200 nM | > 1000 nM
13 | Nc1ccc(Cc2cccc(Cl)c2)c(N)n1 [Compound 10d, 3-(3-chlorobenzyl)pyridine-2,6-diamine] | 19 nM | 900 nM | 500 to 1000 nM
14 | CC(C)Oc1ccccc1-c1ccc(N)nc1N [Compound 2f, 3-(2-isopropoxyphenyl)pyridine-2,6-diamine] | 11.3 nM | 2100 nM | 100 to 500 nM
15 | Nc1ccc(-c2cccc(C(F)(F)F)c2Cl)c(N)n1 [Compound 1p, 3-(2-chloro-3-(trifluoromethyl)phenyl) pyridine-2,6-diamine] | 65 nM | 4600 nM | 100 to 500 nM
16 | Nc1ccc(-c2cccc(Cl)c2Cl)c(NCc2ccccc2)n1 [Compound 5d, N2-benzyl-3-(2,3-dichlorophenyl)pyridine-2,6-diamine] | 84 nM | 1900 nM | > 1000 nM
17 | CCc1nc(N)ccc1-c1ccccc1OC [Compound 6d, 6-ethyl-5-(2-methoxyphenyl)pyridin-2-amine] | 15.2 nM | 960 nM | 100 to 500 nM
18 | CC(C)COc1ccccc1-c1ccc(N)nc1N [Compound 2g, 3-(2-isobutoxyphenyl) pyridine-2,6-diamine] | 9 nM | 700 nM | 100 to 500 nM
19 | COc1cc(F)ccc1-c1ccc(N)nc1N [Compound 2k, 3-(4-fluoro-2-methoxyphenyl) pyridine-2,6-diamine] | 27.6 nM | 3200 nM | 500 to 1000 nM
20 | COc1cccc(-c2ccc(N)nc2N)c1OC [Compound 2l, 3-(2,3-dimethoxyphenyl) pyridine-2,6-diamine] | 26 nM | 900 nM | > 1000 nM
21 | COc1ccccc1-c1ccc(N)nc1N [Compound 2b, 3-(2-methoxyphenyl) pyridine-2,6-diamine] | 13.8 nM | 3000 nM | 100 to 500 nM
